In patent US10941158B2, “Pyrazole ACC inhibitors and uses thereof” (Gilead Apollo, LLC, priority 2015, dated 2021):
Values after ≈ are worked out from the molar mass of the structure shown. Read-outs that look alike come from different tables or passages of the source.

Assays:
ACC1 = ACC1 isolated from rat, mouse, monkey and human; cited from earlier work
ACC2 = ACC2 isolated from rat, mouse, monkey and human; cited from earlier work
human (hACC2) ACC2 = human (hACC2) ACC2 (Homo sapiens, UniProt O00763); assay: In vitro Acetyl-CoA Carboxylase (ACC) inhibition assay (ADP-Glo), hACC2; assay type: biochemical
human (hACC2) ACC2, sequence (O00763 whole entry): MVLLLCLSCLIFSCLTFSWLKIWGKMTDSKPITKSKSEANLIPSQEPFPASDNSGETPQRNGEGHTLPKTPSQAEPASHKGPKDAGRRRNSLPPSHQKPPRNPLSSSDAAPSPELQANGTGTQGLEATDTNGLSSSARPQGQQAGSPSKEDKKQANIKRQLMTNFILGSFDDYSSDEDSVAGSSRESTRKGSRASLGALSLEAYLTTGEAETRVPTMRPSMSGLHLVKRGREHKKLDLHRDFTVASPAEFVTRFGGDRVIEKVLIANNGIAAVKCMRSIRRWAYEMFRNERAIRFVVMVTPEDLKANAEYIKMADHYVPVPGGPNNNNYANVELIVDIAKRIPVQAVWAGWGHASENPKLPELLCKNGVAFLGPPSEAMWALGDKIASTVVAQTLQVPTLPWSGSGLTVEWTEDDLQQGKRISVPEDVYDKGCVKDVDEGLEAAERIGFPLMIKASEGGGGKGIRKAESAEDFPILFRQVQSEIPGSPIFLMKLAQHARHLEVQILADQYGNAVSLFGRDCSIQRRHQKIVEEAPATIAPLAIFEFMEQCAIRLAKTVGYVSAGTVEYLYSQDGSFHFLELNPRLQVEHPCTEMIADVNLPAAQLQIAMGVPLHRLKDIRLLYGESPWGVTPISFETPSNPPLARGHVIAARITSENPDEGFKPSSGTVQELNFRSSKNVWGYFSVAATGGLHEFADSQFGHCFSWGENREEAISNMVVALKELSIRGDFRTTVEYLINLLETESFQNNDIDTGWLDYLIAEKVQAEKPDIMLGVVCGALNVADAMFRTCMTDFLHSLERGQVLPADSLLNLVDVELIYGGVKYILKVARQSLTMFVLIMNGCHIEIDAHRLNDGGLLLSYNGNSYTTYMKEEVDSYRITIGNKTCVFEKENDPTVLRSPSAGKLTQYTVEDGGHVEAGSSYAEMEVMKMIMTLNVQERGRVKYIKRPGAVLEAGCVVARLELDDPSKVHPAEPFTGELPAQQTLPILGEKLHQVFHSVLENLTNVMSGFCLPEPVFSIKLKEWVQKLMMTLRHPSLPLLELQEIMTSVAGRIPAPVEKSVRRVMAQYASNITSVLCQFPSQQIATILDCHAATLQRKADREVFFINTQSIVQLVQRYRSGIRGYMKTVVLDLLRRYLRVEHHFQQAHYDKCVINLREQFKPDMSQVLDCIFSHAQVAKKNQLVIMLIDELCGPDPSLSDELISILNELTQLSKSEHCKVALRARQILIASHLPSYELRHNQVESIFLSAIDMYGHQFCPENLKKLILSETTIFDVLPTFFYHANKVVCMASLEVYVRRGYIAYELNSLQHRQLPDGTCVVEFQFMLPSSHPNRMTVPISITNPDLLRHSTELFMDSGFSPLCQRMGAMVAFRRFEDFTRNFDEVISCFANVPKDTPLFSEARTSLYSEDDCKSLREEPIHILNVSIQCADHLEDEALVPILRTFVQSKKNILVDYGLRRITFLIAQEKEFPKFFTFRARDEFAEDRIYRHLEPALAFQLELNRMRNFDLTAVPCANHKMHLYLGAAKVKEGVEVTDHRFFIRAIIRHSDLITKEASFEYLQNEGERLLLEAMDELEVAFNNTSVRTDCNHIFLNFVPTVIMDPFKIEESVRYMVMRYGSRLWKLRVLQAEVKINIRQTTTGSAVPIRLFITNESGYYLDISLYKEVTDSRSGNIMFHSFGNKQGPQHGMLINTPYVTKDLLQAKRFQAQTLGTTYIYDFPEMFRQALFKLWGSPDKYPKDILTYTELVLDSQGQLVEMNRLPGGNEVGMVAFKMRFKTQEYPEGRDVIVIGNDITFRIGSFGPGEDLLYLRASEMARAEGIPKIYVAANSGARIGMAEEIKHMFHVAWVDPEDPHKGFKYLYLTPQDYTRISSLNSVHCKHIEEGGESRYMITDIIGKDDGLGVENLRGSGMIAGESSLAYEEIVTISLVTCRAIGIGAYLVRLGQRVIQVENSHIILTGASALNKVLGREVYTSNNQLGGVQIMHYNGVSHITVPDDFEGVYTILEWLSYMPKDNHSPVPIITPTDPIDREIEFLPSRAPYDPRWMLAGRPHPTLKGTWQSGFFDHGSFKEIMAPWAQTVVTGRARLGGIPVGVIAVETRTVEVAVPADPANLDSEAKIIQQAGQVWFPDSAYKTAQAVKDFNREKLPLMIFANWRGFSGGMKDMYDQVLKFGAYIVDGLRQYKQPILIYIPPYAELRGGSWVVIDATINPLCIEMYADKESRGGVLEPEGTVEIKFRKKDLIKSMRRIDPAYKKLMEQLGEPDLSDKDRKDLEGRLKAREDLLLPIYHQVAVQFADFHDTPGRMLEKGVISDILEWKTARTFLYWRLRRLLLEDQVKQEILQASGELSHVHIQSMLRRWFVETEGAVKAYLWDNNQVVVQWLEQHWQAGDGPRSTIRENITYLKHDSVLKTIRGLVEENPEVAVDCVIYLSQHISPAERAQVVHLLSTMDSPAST
Method: The detailed procedure is as follows. […] 10 μL ADP glo reagent was added. […] 20 μL kinase detection reagent was added.
“NA” stands for “not assayed.”

C. albicans ATCC 90028 = assay: Anti-Fungal (Candida) Activity Assay, broth microtiter MIC; assay type: cell-based; conditions: read-out: MIC C. albicans ATCC 90028
Method in brief: (§1)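 Visual 48 h MIC endpoints are reported. Plates followed CLSI M27-A3 in RPMI 1640 plus MOPS.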

C. krusei ATCC 6258 = assay: as above; assay type: cell-based; conditions: Pichia kudriavzevii, read-out: MIC C. krusei ATCC 6258
Method in brief: as §1

[1] = system: C. parapsilosis ATCC 22019; assay: as above; assay type: cell-based; conditions: Lodderomyces parapsilosis, read-out: MIC C. parapsilosis ATCC 22019
Method in brief: as §1

Botrtyis cinerea (Bc) = assay: Growth inhibition assay of fungal pathogens; assay type: cell-based; conditions: 48 h, read-out: Concentration at 90% Inhibition Bc
Method in brief: (§2)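 Liquid-culture assay in which test compounds are applied at three final concentrations (50, 10, 2 ppm or 2, 0.4, 0.08 ppm). Inoculum levels follow 48 h growth curves for each fungus. Growth is monitored by OD600 and by eye, and the 48 h values give % inhibition against DMSO.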

[2] = system: Collectotrichum graminicola (Cg); assay: Growth inhibition assay of fungal pathogens; assay type: cell-based; conditions: 48 h, read-out: Concentration at 90% Inhibition Cg
Method in brief: (§3)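 Compounds in DMSO tested at final 50, 10, 2 ppm or 2, 0.4, 0.08 ppm. Spores in 17% V8 medium, or 1.5 mm mycelial plugs in ¼ PDB for R. solani, incubated with compound. OD600 and visual ratings at 48 h versus 2% DMSO control gave percent growth inhibition.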

Diplodia maydis (Dm) = assay: Growth inhibition assay of fungal pathogens; assay type: cell-based; conditions: Stenocarpella maydis, 48 h, read-out: Concentration at 90% Inhibition Dm
Method in brief: as §2

[3] = system: Fusarium moniliforme (Fm); assay: Growth inhibition assay of fungal pathogens; assay type: cell-based; conditions: Fusarium verticillioides, 48 h, read-out: Concentration at 90% Inhibition Fm
Method in brief: as §2

[4] = system: Fusarium virguliforme (Fv); assay: Growth inhibition assay of fungal pathogens; assay type: cell-based; conditions: 48 h
Method in brief: as §3

[5] = system: Phytophthora capsici (Pc); assay: Growth inhibition assay of fungal pathogens; assay type: cell-based; conditions: for IC90: Phytophthora capsici, read-out: Concentration at 90% Inhibition Pc
Method in brief: as §3

Rhizoctonia solani (Rs) = assay: Growth inhibition assay of fungal pathogens; assay type: cell-based; conditions: 48 h, read-out: Concentration at 90% Inhibition Rs
Method in brief: as §2

Septoria tritici (St) = assay: Growth inhibition assay of fungal pathogens; assay type: cell-based; conditions: for IC90: Zymoseptoria tritici, read-out: Concentration at 90% Inhibition St
Method in brief: as §3

fungal (fACC2) ACC2 = fungal (fACC2) ACC2 (UniProt Q00955); conditions: read-out: fACC2 IC50; fungal ACC2, ADP-Glo
fungal (fACC2) ACC2, sequence (Q00955 whole entry): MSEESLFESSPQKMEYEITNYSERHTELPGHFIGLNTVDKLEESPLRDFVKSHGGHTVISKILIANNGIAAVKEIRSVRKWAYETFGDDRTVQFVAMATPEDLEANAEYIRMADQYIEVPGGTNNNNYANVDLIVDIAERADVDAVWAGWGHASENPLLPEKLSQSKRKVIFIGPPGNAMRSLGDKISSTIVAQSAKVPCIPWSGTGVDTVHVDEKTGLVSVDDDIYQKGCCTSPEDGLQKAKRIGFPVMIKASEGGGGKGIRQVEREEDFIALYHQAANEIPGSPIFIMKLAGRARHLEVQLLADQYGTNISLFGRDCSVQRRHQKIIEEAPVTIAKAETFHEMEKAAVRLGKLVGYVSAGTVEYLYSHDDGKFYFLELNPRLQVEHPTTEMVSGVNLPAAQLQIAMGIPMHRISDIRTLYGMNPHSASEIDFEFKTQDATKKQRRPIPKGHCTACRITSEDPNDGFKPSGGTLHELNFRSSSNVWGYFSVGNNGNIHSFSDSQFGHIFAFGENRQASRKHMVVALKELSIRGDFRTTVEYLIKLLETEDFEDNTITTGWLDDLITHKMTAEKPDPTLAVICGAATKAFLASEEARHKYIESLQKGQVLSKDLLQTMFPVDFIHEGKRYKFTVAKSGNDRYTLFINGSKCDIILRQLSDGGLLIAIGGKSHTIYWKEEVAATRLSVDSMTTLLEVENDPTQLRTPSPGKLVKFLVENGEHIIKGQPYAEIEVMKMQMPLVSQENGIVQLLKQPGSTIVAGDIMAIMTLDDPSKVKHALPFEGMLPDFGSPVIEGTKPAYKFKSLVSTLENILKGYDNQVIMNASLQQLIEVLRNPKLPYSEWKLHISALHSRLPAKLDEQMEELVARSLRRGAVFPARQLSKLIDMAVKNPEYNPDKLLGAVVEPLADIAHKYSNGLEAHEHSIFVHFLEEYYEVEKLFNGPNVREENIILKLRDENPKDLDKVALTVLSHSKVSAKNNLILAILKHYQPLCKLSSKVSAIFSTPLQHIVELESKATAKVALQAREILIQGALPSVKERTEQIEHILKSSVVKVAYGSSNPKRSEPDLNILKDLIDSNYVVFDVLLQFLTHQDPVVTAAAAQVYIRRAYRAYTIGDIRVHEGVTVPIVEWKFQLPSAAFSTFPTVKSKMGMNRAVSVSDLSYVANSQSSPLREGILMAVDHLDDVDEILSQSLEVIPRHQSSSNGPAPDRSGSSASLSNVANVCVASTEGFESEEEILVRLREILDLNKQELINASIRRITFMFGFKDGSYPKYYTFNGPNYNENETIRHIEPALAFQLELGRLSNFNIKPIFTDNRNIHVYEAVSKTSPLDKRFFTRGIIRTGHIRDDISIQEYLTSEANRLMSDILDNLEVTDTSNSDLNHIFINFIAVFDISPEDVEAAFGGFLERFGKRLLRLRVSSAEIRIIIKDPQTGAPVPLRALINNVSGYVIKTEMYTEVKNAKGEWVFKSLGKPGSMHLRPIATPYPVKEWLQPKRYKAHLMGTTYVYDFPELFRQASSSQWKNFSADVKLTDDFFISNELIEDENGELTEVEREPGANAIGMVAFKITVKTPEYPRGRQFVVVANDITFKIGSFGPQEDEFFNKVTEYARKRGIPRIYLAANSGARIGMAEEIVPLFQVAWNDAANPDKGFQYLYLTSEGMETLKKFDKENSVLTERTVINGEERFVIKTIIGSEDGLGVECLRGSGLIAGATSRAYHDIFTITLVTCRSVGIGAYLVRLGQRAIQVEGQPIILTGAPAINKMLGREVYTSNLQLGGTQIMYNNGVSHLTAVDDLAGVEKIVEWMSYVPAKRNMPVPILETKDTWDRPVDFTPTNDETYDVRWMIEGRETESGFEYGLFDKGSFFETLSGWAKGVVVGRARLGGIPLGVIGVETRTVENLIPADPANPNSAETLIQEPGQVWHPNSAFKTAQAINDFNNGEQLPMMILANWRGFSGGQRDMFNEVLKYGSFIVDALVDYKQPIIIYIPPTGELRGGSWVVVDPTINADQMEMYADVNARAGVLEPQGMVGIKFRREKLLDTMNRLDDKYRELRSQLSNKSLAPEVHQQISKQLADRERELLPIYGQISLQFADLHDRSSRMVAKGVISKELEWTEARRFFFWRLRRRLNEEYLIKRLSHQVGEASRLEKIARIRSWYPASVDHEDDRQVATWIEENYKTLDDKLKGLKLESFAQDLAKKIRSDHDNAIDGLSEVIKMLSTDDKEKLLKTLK
Method: An exemplary procedure for the in vitro ACC inhibition assay, which can be used to determine the inhibitory action of compounds of the invention toward either human (hACC2) or fungal (fACC2) ACC2, follows. The ADP-Glo™ Kinase Assay kit from Promega was used. The ADP-Glo™ Kinase Assay is a luminescent ADP detection assay to measure enzymatic activity by quantifying the amount of ADP produced during an enzyme reaction. The assay is performed in two steps; first, after the enzyme reaction, an equal volume of ADP-Glo™ Reagent is added to terminate the reaction and deplete the remaining ATP. Second, the Kinase Detection Reagent is added to simultaneously convert ADP to ATP and allow the newly synthesized ATP to be measured using a luciferase/luciferin reaction. Luminescence can be correlated to ADP concentrations by using an ATP-to-ADP conversion curve. The detailed procedure is as follows. 50 μL of the compound being tested (600 μM in DMSO) was added to a 384-well dilution plate. The compound was diluted 1:3 in succession in DMSO for each row for 11 wells. 0.5 μL ACC2 working solution was added to 384-well white Optiplate assay plate. 0.5 μL diluted compound solution in each column from step 2 was added to assay plate, each row containing 2 replicates. […] The plates were incubated at room temperature for 15 minutes. 5 μL substrate working solution was added to each well to initiate reaction. Final ACC2 reaction concentrations consist of: 5 nM ACC2, 20 μM ATP, 20 μM acetyl-CoA, 12 mM NaHCO3, 0.01% Brij35, 2 mM DTT, 5% DMSO, test compound concentrations: 30 μM, 10 μM, 3.33 μM, 1.11 μM, 0.37 μM, 0.123 μM, 0.0411 μM, 0.0137 μM, 0.00457 μM, 0.00152 μM, and 0.00051 μM. Plates were incubated at room temperature for 60 minutes. 10 μL ADP glo reagent was added. Plates were incubated at room temperature for 40 minutes. 20 μL kinase detection reagent was added. Plates were incubated at room temperature for 40 minutes, and then read on a Perkin Elmer EnVision 2104 plate reader for luminescence as Relative Light Units (RLU).
Data for each concentration, as well as the positive and negative controls were averaged, and the standard deviation calculated. Percent inhibition was calculated by the formula: 100×(average negative control−compound)/(average negative control−average positive control). The IC50 for each compound was calculated by fitting the data with a non-linear regression equation: Y=Bottom+(Top-Bottom)/(1+10^((Log IC50−X)*Hill Slope)), where X is the log of compound concentration and Y is percent inhibition.
Compounds having an activity designated as “AA” provided an IC50 0.0006-0.003 μM; provided an “A” provided an IC50 0.003-0.01 μM; compounds having an activity designated as “B” provided an IC50 0.01-0.04 μM; and compounds having an activity designated as “C” provided an IC50>0.04 μM IC50. “NA” stands for “not assayed.”

[6] = ATCC90028, 3 replicates, MIC recorded at 48 h
[7] = ATCC6258, 3 replicates, MIC recorded at 48 h
[8] = ATCC22019, 3 replicates, MIC recorded at 48 h
[9] = Table 4b, 48 hours, read-out: Concentration at 90% Inhibition Fv

Row | Structure (SMILES) | IC50 (human (hACC2) ACC2) [nM] | MIC (C. albicans ATCC 90028; [6]) [µg/mL] | MIC (C. krusei ATCC 6258; [7]) [µg/mL] | MIC [1, 8] [µg/mL] | IC90 (Botrtyis cinerea (Bc); Table 4b) [µg/mL] | IC90 ([2]; Table 4b) [µg/mL] | IC90 (Diplodia maydis (Dm); Table 4b) [µg/mL] | IC90 ([3]; Table 4b, 48 hours) [µg/mL] | IC90 [4, 9] [µg/mL] | IC90 (Rhizoctonia solani (Rs); Table 4b) [µg/mL] | IC50 (fungal (fACC2) ACC2) [nM] | IC90 ([5]; Table 4b, 48 hours) [µg/mL] | IC90 (Septoria tritici (St); Table 4b, 48 hours) [µg/mL] | also measured
1 | O=C(c1c2ccccc2cc2ccccc12)N1CCC(N2CCC[C@@H](C(=O)N3CCOCC3)C2)CC1 [CP-640186] |  |  |  |  |  |  |  |  |  |  |  |  |  | IC50 (ACC1): ~60 nM; IC50 (ACC2): ~60 nM
2 | COc1ccc(F)cc1[C@H](Cn1c(=O)n(C(C)(C)C(=O)N2CC=CC2)c(=O)c2c(C)c(-n3cccn3)sc21)OC1CCOCC1 [Compound I-45, (R)-3-(1-(2,5-dihydro-1H-pyrrol-1-yl)-2-methyl-1-oxopropan-2-yl)-1-(2-(5-fluoro-2-methoxyphenyl)-2-((tetrahydro-2H-pyran-4-yl)oxy)ethyl)-5-methyl-6-(1H-pyrazol-1-yl)thieno[2,3-d]pyrimidine-2,4(1H,3H)-dione] | 10 to 40 | 2.1 to 4 (≈ 3.29 to 6.27 µM) | 0.25 to 1 (≈ 0.392 to 1.57 µM) | 2.1 to 4 (≈ 3.29 to 6.27 µM) | 10 (≈ 15.7 µM) | 2 (≈ 3.14 µM) | 10 (≈ 15.7 µM) | 2 (≈ 3.14 µM) | 10 (≈ 15.7 µM) | 2 (≈ 3.14 µM) | 0.6 to 3 |  |  | IC90 (Botrtyis cinerea (Bc); Table 4a): > 50 µg/mL; IC90 ([2]; Table 4a): 2 µg/mL (≈ 3.14 µM); IC90 (Diplodia maydis (Dm); Table 4a): > 50 µg/mL; IC90 ([3]; Table 4a, 48 hours): 2 µg/mL (≈ 3.14 µM); IC90 ([4]; Table 4a, 48 hours, read-out: Concentration at 90% Inhibition Fv): > 50 µg/mL; IC90 ([5]; Table 4a, 48 hours): > 50 µg/mL; Concentration at 90% Inhibition Pc ([5]; Table 4b, 48 hours): D (“D” provided a compound concentration of >50 ppm at 90% inhibition of fungal pathogens); IC90 (Rhizoctonia solani (Rs); Table 4a): 2 µg/mL (≈ 3.14 µM); Concentration at 90% Inhibition St (Septoria tritici (St); Table 4b, 48 hours): D (“D” provided a compound concentration of >50 ppm at 90% inhibition of fungal pathogens); IC90 (Septoria tritici (St); Table 4a, 48 hours): > 50 µg/mL
3 | COCCO[C@@H](Cn1c(=O)n(C(C)(C)C(=O)NC2CCCCC2)c(=O)c2c(C)c(-n3cccn3)sc21)c1cc(F)ccc1OC [Compound I-46, (R)—N-cyclohexyl-2-(1-(2-(5-fluoro-2-methoxyphenyl)-2-(2-methoxyethoxy)ethyl)-5-methyl-2,4-dioxo-6-(1H-pyrazol-1-yl)-1,4-dihydrothieno[2,3-d]pyrimidin-3(2H)-yl)-2-methylpropanamide] | > 40 |  |  |  | 10 (≈ 15.6 µM) | > 50 | > 50 |  |  | > 50 | 0.6 to 3 |  |  | MIC (C. albicans ATCC 90028; ATCC90028, 48 h): > 4.1 µg/mL; MIC (C. krusei ATCC 6258; ATCC6258, 48 h): > 4.1 µg/mL; MIC ([1]; ATCC22019, 48 h): > 4.1 µg/mL; IC90 [3]: 2 µg/mL (≈ 3.12 µM); IC90 ([4]; read-out: Concentration at 90% Inhibition Fv, Table 4b, 48 hours): > 50 µg/mL; IC90 ([5]; 48 h, Table 4b): > 50 µg/mL; IC90 (Septoria tritici (St); 48 h, Table 4b): > 50 µg/mL
4 | COCCO[C@@H](Cn1c(=O)n(C(C)(C)C(=O)NC2CCC2)c(=O)c2c(C)c(-n3cccn3)sc21)c1cc(F)ccc1OC [Compound I-47, (R)—N-cyclobutyl-2-(1-(2-(5-fluoro-2-methoxyphenyl)-2-(2-methoxyethoxy)ethyl)-5-methyl-2,4-dioxo-6-(1H-pyrazol-1-yl)-1,4-dihydrothieno[2,3-d]pyrimidin-3(2H)-yl)-2-methylpropanamide] | 10 to 40 | 0.25 to 1 (≈ 0.407 to 1.63 µM) | 0.25 to 1 (≈ 0.407 to 1.63 µM) | 0.25 to 1 (≈ 0.407 to 1.63 µM) | 2 (≈ 3.26 µM) | 10 (≈ 16.3 µM) | > 50 | 0.4 (≈ 0.652 µM) | 2 (≈ 3.26 µM) | > 50 | 0.6 to 3 | > 50 | > 50 | 
5 | COCCO[C@@H](Cn1c(=O)n([C@H](C)C(=O)N2CCCC2)c(=O)c2c(C)c(-n3cccn3)sc21)c1cc(F)ccc1OC [Compound I-76, 1-((R)-2-(5-fluoro-2-methoxyphenyl)-2-(2-methoxyethoxy)ethyl)-5-methyl-3-((R)-1-oxo-1-(pyrrolidin-1-yl)propan-2-yl)-6-(1H-pyrazol-1-yl)thieno[2,3-d]pyrimidine-2,4(1H,3H)-dione] | > 40 | > 4.1 | > 4.1 | > 4.1 | > 50 | > 50 | > 50 | 2 (≈ 3.34 µM) | > 50 | > 50 | 3 to 10 | > 50 | > 50 | 
6 | COc1ccc(F)cc1[C@H](Cn1c(=O)n(C(C)(C)C(N)=O)c(=O)c2c(C)c(-n3cccn3)sc21)OCCC#N [Compound I-77, (R)-2-(1-(2-(2-cyanoethoxy)-2-(5-fluoro-2-methoxyphenyl)ethyl)-5-methyl-2,4-dioxo-6-(1H-pyrazol-1-yl)-1,4-dihydrothieno[2,3-d]pyrimidin-3(2H)-yl)-2-methylpropanamide] | > 40 | > 4.1 | > 4.1 | > 4.1 | > 50 | > 50 | > 50 | 2 (≈ 3.61 µM) | 10 (≈ 18 µM) | > 50 | 0.6 to 3 | > 50 | > 50 | 
7 | COc1ccc(F)cc1[C@H](Cn1c(=O)n(C(C)(C)C(=O)N2CCCC2)c(=O)c2c(C)c(-n3cccn3)sc21)OCCC#N [Compound I-81, (R)-3-(1-(5-fluoro-2-methoxyphenyl)-2-(5-methyl-3-(2-methyl-1-oxo-1-(pyrrolidin-1-yl)propan-2-yl)-2,4-dioxo-6-(1H-pyrazol-1-yl)-3,4-dihydrothieno[2,3-d]pyrimidin-(2H)-yl)ethoxy)propanenitrile] | 3 to 10 | > 4.1 | > 4.1 | > 4.1 | 0.4 (≈ 0.657 µM) | 2 (≈ 3.29 µM) | 2 (≈ 3.29 µM) | 0.08 (≈ 0.131 µM) | 0.4 (≈ 0.657 µM) | 0.08 (≈ 0.131 µM) | 0.6 to 3 | > 50 | > 50 | 
8 | COc1ccc(F)cc1[C@H](Cn1c(=O)n(C(C)(C)C(=O)O)c(=O)c2c(C)c(-n3cccn3)sc21)OCCC#N [Compound I-82] | 10 to 40 | > 4.1 | > 4.1 | > 4.1 | 10 (≈ 18 µM) | > 50 | > 50 | 2 (≈ 3.6 µM) | 10 (≈ 18 µM) | 10 (≈ 18 µM) | 0.6 to 3 | > 50 | > 50 | 
9 | COc1ccc(F)cc1[C@@H](O)Cn1c(=O)n(C(C)(C)C(=O)O)c(=O)c2c(C)c(-n3cccn3)sc21 [Compound I-85] | 10 to 40 | 2.1 to 4 (≈ 4.18 to 7.96 µM) | 0.25 to 1 (≈ 0.497 to 1.99 µM) | 0.25 to 1 (≈ 0.497 to 1.99 µM) | > 50 | > 50 | > 50 | 10 (≈ 19.9 µM) | > 50 | 10 (≈ 19.9 µM) | 0.6 to 3 | > 50 | > 50 | 
